Assay results: patent publication US6440978B2, “Therapeutic agent for dermatitis” (Nippon Zoki Pharmaceutical Co., Ltd., priority 2000, dated 2002)

How the values were obtained:
[1] = tested on: antigen-induced swelling reaction in a mouse ear; assay: Suppressive action against antigen-induced swelling reaction in a mouse ear; type: in vivo, BALB/c female mice
Procedure: (§1) Seven week old BALB/c female (SPF) mice of were selected as subjects. According to a method of Tanaka, et al. (Allergy, 46, pages 42-48(1997)), egg white albumin (final concentration: 2 μg/mL) and aluminum hydroxide gel (final concentration: 10 mg/mL) were suspended in physiological saline and 0.5 mL of the suspension was administered to effect intraperitoneal sensitization on the first day of the test. On the 14th day of the test, an additional sensitization was carried out under the same conditions. Further, on the 28th day of the test, 25 μL of egg albumin (a 20 μg/mL solution in physiological saline) was intradermally administered to the right ear of a mouse to induce a swelling reaction.
This swelling reaction reached its peak at 4 hours after the challenge by the antigen. Even after 24 to 48 hours, a significant swelling reaction was noted as compared with the control in which antigen was merely challenged (not sensitized). […] On the contrary, the swelling from 24 to 48 hours after the challenge is thought to be the so-called delayed-type swelling reaction accompanied by infiltration of eosinophils, neutrophils and lymphocytes. In addition, a flare-up reaction having a peak at 24 hours after the challenge appeared on the ear of the antigen-induced site. Like swelling, flare-up is an important symptom of inflammation. Although the mechanism of the flare-up reaction is ambiguous, it may be a flare-up reaction of a delayed type in view of the time course of its expression. As such, this model animal in which the inflammation of both immediate and delayed types are induced is appropriate as a model animal for atopic dermatitis. In the following experiment, the effectiveness of the therapeutic agent for dermatitis according to the present invention was tested using the said model animal.
Each of a vehicle (control) and a test agent (containing the compound of the present invention or a positive control) was applied to the antigen-induced site (right auricle) of a mouse. A swelling reaction was induced in accordance with Example 2 at 2 hours before and 4 hours after the challenge. After the challenge, the thickness of the swelling induced ear was measured by a Dial Thickness Gauge (manufactured by Ozaki Seisakusho). The intensity of the reaction was expressed in terms of an increase in the auricle thickness by deducting the thickness (early value) measured before the challenge from the thickness of the swelling induced ear. The suppression rate of the test drug for ear swelling was calculated by the following formula:
Suppression Rate (%)=100 ×[(Ear Thickness Increase of Vehicle-Only-Control)—(Ear Thickness Increase of the Test Group)]/[(Ear Thickness Increase of the Vehicle-Only-Control)—(Ear Thickness Increase of the Challenge-Only-Group)]

[2] = tested on: guinea pig eosinophils in the abdominal cavity; assay: Suppression of LTB4-induced chemotaxis of guinea pig eosinophils (modified Boyden chamber); type: cell-based, Hartley male guinea pigs; conditions: Cavia porcellus, Eosinophil; chemotaxis induced by 10^-7 M LTB4, 37° C., 2 hours; 5 trials
Procedure: The suppressive effect of the compounds of the present invention on the leukotriene B4 or LTB4 induced chemotaxis of guinea pig eosinophils in the abdominal cavity were investigated using a modified Boyden chamber method. The guinea pig eosinophils in the abdominal cavity were prepared using Hartley male guinea pigs according to the conventional method. The chemotaxis of the eosinophils was induced by 10^−7 M of leukotriene B4 or LTB4 in 37° C. for 2 hours in the presence or absence of the test drug (the therapeutic agent for dermatitis of the present invention). After the chemotaxis cells were fixed and stained using the Giemsa stain, the number of chemotaxis cells was counted in visual fields of a microscope (×400). The experiments were repeated several times and the suppression rate of the test drug was calculated by the following formula:
Suppression Rate (%)=100×[(the number of chemotaxis eosinophils in control group)—(the number of chemotaxis eosinophils in the test drug group)]/[(the number of chemotaxis eosinophils in control group)—(the number of spontaneous chemotaxis eosinophils)]
The 50% inhibitory concentration (IC50) was calculated from the regression line obtained by the least square method based on the calculated suppression rates.

[3] = tested on: eosinophil infiltration into the antigen-induced ear of a mouse; assay: Suppressive action against eosinophil infiltration into the antigen-induced ear of a mouse (eosinophil peroxidase activity); type: in vivo, BALB/c female mice; conditions: 3% ointment; ear tissue 24 hours after challenge; compared with positive control
Procedure: as §1
The degree of eosinophil infiltration into the ear of a mouse was determined by measuring eosinophil peroxidase activity in a skin tissue homogenate and using the measurement as an index. […] This homogenate was centrifuged at 20,000 rpm for 20 minutes (using KR-20000T, Kubota) and the peroxidase activity in the supernatant fluid was measured using o-phenylenediamine dihydrochloride (Sigma) as a substrate. By measuring the absorbance of radiation having a wavelength of 492 nm, the resulting reaction curve was substantially linear relative to the dosage of the test drug and the degree of eosinophil infiltration was compared by defining the eosinophil infiltration of the control as 100%.

ear of a normal mouse = assay: Influence of repeated application on the ear thickness of a normal mouse; type: in vivo; conditions: nine times in total, 2 hours after final application
Procedure: The therapeutic agent for dermatitis according to the present invention or the positive control (steroid preparation) was applied twice daily to the right ear of a normal mouse for a total of nine times and, 2 hours after the final application, the thickness of the ear was measured.

IC50 [2]: 1.9 ± 0.4 µM | melting point: 261 to 262 °C | Ear Thickness (ear of a normal mouse; 3% ointment applied twice daily): 22.3 ± 0.2 × 0.01 mm | Ear Thickness (ear of a normal mouse; 10% ointment applied twice daily): 22.3 ± 0.5 × 0.01 mm
SMILES: Nc1ccc2c(=O)n(Cc3ccccc3)c(=O)n(-c3ccccc3)c2n1 [Compound 1, 7-amino-3-benzyl-1,2,3,4-tetrahydro-1-phenylpyrido[2,3-d]pyrimidin-2,4-dione]
Ear Thickness Increase at 1 hr after Challenge ([1]; Table 1, 1% ointment): 6.3 ± 1.4 × 0.01 mm | Suppression Rate of ear thickness increase at 1 hr after Challenge ([1]; Table 1, 1% ointment): (106.1%) | Ear Thickness Increase at 4 hr after Challenge ([1]; Table 1, 1% ointment): 18.0 ± 0.9 × 0.01 mm | Suppression Rate of ear thickness increase at 4 hr after Challenge ([1]; Table 1, 1% ointment): (34.0%) | Ear Thickness Increase at 8 hr after Challenge ([1]; Table 1, 1% ointment): 16.0 ± 0.4 × 0.01 mm | Suppression Rate of ear thickness increase at 8 hr after Challenge ([1]; Table 1, 1% ointment): (26.0%) | Ear Thickness Increase at 24 hr after Challenge ([1]; Table 1, 1% ointment): 9.3 ± 1.1 × 0.01 mm | Suppression Rate of ear thickness increase at 24 hr after Challenge ([1]; Table 1, 1% ointment): (51.3%) | Ear Thickness Increase at 48 hr after Challenge ([1]; Table 1, 1% ointment): 6.8 ± 1.0 × 0.01 mm | Suppression Rate of ear thickness increase at 48 hr after Challenge ([1]; Table 1, 1% ointment): (47.8%) | Ear Thickness Increase at 1 hr after Challenge ([1]; Table 1, 3% ointment): 5.3 ± 0.5 × 0.01 mm | Suppression Rate of ear thickness increase at 1 hr after Challenge ([1]; Table 1, 3% ointment): (136.4%) | Ear Thickness Increase at 4 hr after Challenge ([1]; Table 1, 3% ointment): 2.3 ± 0.9 × 0.01 mm | Suppression Rate of ear thickness increase at 4 hr after Challenge ([1]; Table 1, 3% ointment): (18.4%) | Ear Thickness Increase at 8 hr after Challenge ([1]; Table 1, 3% ointment): 15.8 ± 1.4 × 0.01 mm | Suppression Rate of ear thickness increase at 8 hr after Challenge ([1]; Table 1, 3% ointment): (27.2%) | Ear Thickness Increase at 24 hr after Challenge ([1]; Table 1, 3% ointment): 7.8 ± 0.9 × 0.01 mm | Suppression Rate of ear thickness increase at 24 hr after Challenge ([1]; Table 1, 3% ointment): (61.3%) | Ear Thickness Increase at 48 hr after Challenge ([1]; Table 1, 3% ointment): 5.3 ± 0.9 × 0.01 mm | Suppression Rate of ear thickness increase at 48 hr after Challenge ([1]; Table 1, 3% ointment): (64.1%) | Ear Thickness Increase at 4 hr after Challenge ([1]; Table 2, 0.3% ointment): 20.3 ± 2.4 × 0.01 mm | Suppression Rate of ear thickness increase at 4 hr after Challenge ([1]; Table 2, 0.3% ointment): (18.7%) | Ear Thickess Increase at 24 hr after Challenge ([1]; Table 2, 0.3% ointment): 13.5 ± 1.3 × 0.01 mm | Suppression Rate of ear thickness increase at 24 hr after Challenge ([1]; Table 2, 0.3% ointment): (19.4%) | Ear Thickness Increase at 4 hr after Challenge ([1]; Table 2, 3% ointment): 13.3 ± 0.3 × 0.01 mm | Suppression Rate of ear thickness increase at 4 hr after Challenge ([1]; Table 2, 3% ointment): (49.8%) | Ear Thickess Increase at 24 hr after Challenge ([1]; Table 2, 3% ointment): 9.3 ± 1.7 × 0.01 mm | Suppression Rate of ear thickness increase at 24 hr after Challenge ([1]; Table 2, 3% ointment): (46.5%) | eosinophil infiltration suppressing action [3]: same degree as that of the steroid preparation of the positive control
